How the values were obtained:
Format in all cases: binding
[1] = biological target: T1, GRPR (Homo sapiens, UniProt P30550); assay: NanoBRET screen HiBiT-GRPR in HEK293
T1 construct: purchased Promega (in-house HiBiT-GPCR construct library, NanoBRET)
Method: (§1) Each tracer candidate was screened across the entire library of HiBiT-GPCR constructs using NanoBRET as the detection modality. As depicted in Figure 4A, the specificity of interactions was evaluated through decrease in BRET due to competitive displacement of a bound tracer by excess parental compound. Each tracer was analyzed for binding to each HiBiT-GPCR fusion in the absence and in the presence of competing parental compound. Briefly, HEK293 cells were transfected with HiBiT-GPCR constructs diluted into promoterless DNA to reduce expression and maximize translocation to the cell surface. Each tracer candidate was then screened at concentrations of 1 μM and 0.1 μM across cells expressing these fusions. Cells were treated for 1.5 h with tracer either alone or in the presence of 20 μM competing parental compound (i.e., control). BRET was measured upon addition of purified LgBiT and subsequent complementation with HiBiT genetically fused to a GPCR. The specificity of interactions was assessed through a decrease in BRET signal due to competitive displacement of the bound tracer. To further gauge the robustness of these interactions, the fold response over the control (i.e., BRETtracer/BRETcontrol) was calculated. We chose a 1.5-fold response, which translates to ≥7-fold signal over noise as the minimal threshold required to score an interaction as positive. […]. Below we highlight the screening results obtained for our exemplary fluorescent tracers based on Clozapine, Amitriptyline and AZD1283.
(§2) HiBiT-GPCR DNA constructs were diluted in 10 mM Tris pH 8 to a final concentration of 0.01 μg/μL, arrayed in 96-well plates and stored at −20 °C. For transfection, HEK293 cells were suspended in Opti-MEM (without phenol red) supplemented with 2% fetal bovine serum (Seradigm) and 100 units/mL penicillin–streptomycin (Gibco) at a final concentration of 220,000 cells/mL and dispensed into white 96-well plates at 90 μL/well. Subsequent transfections and screens were carried using an Agilent Bravo Automated Liquid Handling Platform. First, the 96-well HiBiT DNA arrays were diluted 25-fold in Opti-MEM (without serum or phenol red) to a final concentration of 0.0004 μg/μL and 20 μL of the diluted DNAs were transferred into new 96-well plates. Next, promoterless carrier DNA (1 μg/μL) was diluted 25-fold (0.04 μg/μL) and then dispensed into the diluted arrays at 20 μL/well. Following brief mixing, Viafect transfection reagent (Promega) diluted 16-fold into Opti-MEM was dispensed into the plates at 40 μL/well. After mixing by pipetting, plates were incubated for 10 min on the pipetting station deck. The DNA-transfection reagent complexes were then added to plates containing cells. To facilitate the screen, 10 μL of DNA-transfection reagent complexes were added in duplicates to the top 4 and bottom 4 rows, resulting in two identical 48-well arrays per plate. Plates with transfected cells were incubated for 18–20 h at 37 °C/5% CO2. A screen of each tracer across the entire library using two different concentrations requires duplicate plates of transfected cells. Depending on the number of tracers being screened, transfections can be scaled up using the same ratios. The next day, for each tracer, four 20× screening solutions in tracer dilution buffer (Promega) were prepared: two duplicates at final concentration of 20 μM and two duplicates at a final concentration of 2 μM. A competing unmodified compound was added to one of each duplicate at a final concentration of 400 μM. The four resulting solutions were diluted 4-fold in Opti-MEM without serum or phenol red to generate 5× solutions (5 µM and 0.5 µM tracer +/− 100 μM competing compound). To screen the library, a BioTek MultiFlo FX liquid dispenser was used to dispense 22.5 µL of tracer solution to the top 4 rows and 22.5 µL tracer + competing compound solution to the 4 bottom rows. Plates were briefly mixed on an orbital shaker and incubated for 1.5 h at room temperature. […]

[2] = biological target: T2, CCR8 (Homo sapiens, UniProt P51685); assay: NanoBRET screen HiBiT-CCR8 in HEK293
T2 construct: purchased Promega (in-house HiBiT-GPCR construct library, NanoBRET)
Method: as §1, §2

[3] = biological target: T3, FZD2 (Homo sapiens, UniProt Q14332); assay: NanoBRET screen HiBiT-FZD2 in HEK293
T3 construct: purchased Promega (in-house HiBiT-GPCR construct library, NanoBRET)
Method: as §1, §2

[4] = biological target: T4, PTGER1 (Homo sapiens, UniProt P34995); assay: NanoBRET screen HiBiT-PTGER1 in HEK293; conditions: PTGER1
T4 construct: purchased Promega (in-house HiBiT-GPCR construct library, NanoBRET)
T4 sequence (P34995 1-402): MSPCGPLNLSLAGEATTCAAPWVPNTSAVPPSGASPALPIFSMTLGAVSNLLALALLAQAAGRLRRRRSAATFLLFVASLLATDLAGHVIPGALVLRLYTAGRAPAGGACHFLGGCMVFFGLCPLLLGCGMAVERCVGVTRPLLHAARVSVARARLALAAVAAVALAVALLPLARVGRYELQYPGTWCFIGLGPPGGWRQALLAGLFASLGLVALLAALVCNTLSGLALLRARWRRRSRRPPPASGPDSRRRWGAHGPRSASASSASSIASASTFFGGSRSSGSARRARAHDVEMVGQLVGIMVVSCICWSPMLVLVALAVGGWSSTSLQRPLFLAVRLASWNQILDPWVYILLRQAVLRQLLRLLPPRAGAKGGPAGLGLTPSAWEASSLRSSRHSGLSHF
Method: as §1, §2

[5] = biological target: T5, NPY1R (Homo sapiens, UniProt P25929); assay: NanoBRET screen HiBiT-NPY1R in HEK293
T5 construct: purchased Promega (in-house HiBiT-GPCR construct library, NanoBRET)
T5 sequence (P25929 1-384): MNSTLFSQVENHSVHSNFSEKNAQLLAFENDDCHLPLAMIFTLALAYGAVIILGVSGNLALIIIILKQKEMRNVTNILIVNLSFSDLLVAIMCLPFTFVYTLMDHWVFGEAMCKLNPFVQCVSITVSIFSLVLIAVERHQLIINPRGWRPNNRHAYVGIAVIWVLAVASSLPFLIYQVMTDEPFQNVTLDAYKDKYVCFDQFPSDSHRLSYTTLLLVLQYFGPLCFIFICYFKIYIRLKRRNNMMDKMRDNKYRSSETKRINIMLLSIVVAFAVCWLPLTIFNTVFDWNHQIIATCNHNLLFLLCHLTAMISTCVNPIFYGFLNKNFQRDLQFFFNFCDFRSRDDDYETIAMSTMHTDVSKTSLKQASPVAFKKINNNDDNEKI
Method: as §1, §2

[6] = biological target: T6, HRH3 (Homo sapiens, UniProt Q9Y5N1); assay: NanoBRET screen HiBiT-HRH3 in HEK293
T6 construct: purchased Promega (in-house HiBiT-GPCR construct library, NanoBRET)
Method: as §1, §2

T1 sequence (P30550 whole entry): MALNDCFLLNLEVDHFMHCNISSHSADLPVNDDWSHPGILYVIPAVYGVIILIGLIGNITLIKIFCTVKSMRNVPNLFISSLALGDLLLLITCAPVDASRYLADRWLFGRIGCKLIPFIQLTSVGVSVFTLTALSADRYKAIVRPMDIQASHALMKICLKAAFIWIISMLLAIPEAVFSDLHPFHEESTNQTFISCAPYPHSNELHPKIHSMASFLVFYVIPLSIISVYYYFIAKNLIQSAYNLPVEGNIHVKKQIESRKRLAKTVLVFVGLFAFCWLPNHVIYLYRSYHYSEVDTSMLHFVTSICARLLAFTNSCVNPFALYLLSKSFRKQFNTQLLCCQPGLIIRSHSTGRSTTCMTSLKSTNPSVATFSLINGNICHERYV
T2 sequence (P51685 whole entry): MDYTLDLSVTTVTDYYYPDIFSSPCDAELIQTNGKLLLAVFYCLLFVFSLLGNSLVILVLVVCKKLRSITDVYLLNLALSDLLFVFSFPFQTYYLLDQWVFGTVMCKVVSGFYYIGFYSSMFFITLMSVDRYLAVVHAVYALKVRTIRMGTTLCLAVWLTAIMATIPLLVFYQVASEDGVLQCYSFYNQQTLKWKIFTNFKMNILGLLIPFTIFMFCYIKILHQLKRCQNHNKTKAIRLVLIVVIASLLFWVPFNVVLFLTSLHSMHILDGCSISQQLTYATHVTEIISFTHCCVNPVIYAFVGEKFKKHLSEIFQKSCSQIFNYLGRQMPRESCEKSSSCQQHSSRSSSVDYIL
T3 sequence (Q14332 24-565): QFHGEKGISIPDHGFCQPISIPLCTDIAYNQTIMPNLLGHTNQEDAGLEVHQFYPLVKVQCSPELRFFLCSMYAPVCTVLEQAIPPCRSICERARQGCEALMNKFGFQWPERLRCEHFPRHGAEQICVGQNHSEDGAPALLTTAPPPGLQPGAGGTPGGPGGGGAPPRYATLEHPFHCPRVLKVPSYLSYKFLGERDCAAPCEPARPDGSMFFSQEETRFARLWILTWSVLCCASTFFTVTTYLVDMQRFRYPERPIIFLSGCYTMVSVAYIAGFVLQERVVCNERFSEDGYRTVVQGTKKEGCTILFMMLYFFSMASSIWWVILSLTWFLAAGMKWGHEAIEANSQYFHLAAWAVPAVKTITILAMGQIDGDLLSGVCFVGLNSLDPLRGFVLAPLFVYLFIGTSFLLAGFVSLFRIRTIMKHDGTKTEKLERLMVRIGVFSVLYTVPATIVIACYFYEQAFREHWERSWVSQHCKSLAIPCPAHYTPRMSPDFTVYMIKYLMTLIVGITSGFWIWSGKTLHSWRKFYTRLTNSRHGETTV
T6 sequence (Q9Y5N1 whole entry): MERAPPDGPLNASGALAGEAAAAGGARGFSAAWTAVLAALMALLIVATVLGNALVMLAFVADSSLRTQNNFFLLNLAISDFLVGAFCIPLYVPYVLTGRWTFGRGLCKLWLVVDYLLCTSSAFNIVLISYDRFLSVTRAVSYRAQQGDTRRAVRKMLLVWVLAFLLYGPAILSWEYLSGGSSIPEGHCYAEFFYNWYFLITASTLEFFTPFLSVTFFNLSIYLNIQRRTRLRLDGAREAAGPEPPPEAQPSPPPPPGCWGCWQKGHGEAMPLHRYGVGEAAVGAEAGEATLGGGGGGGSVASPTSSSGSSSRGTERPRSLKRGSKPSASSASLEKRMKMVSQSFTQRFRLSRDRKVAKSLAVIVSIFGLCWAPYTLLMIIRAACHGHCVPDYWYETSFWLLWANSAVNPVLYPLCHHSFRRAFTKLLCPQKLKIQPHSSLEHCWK

| SMILES | NanoBRET Fold Response ([1]; GRPR, tracer 0.1μM) | NanoBRET Fold Response ([1]; GRPR, tracer 1μM) | NanoBRET Fold Response ([2]; CCR8, tracer 0.1μM) | NanoBRET Fold Response ([2]; CCR8, tracer 1μM) | NanoBRET Fold Response ([3]; FZD2, tracer 0.1μM) | NanoBRET Fold Response ([3]; FZD2, tracer 1μM) | NanoBRET Fold Response ([4]; tracer 0.1μM) | NanoBRET Fold Response ([4]; tracer 1μM) | NanoBRET Fold Response ([5]; NPY1R, tracer 0.1μM) | NanoBRET Fold Response ([5]; NPY1R, tracer 1μM) | NanoBRET Fold Response ([6]; HRH3, tracer 0.1μM) | NanoBRET Fold Response ([6]; HRH3, tracer 1μM) | NanoBRET Fold Response ([2]; tracer at 1μM) | NanoBRET Fold Response ([3]; tracer at 1μM) | NanoBRET Fold Response ([6]; tracer at 1μM) | other results |
| --- | --- | --- | --- | --- | --- | --- | --- | --- | --- | --- | --- | --- | --- | --- | --- | --- |
| CC(C)N(CC[C@H](c1ccccc1)c1cc(CCNC(=O)c2ccc(CNC(=O)CCc3ccc4n3[B-](F)(F)[N+]3=C(c5ccc[nH]5)C=CC3=C4)cc2)ccc1O)C(C)C [Tolterodine-BZ-NB590] | 0.81 | 0.99 | 0.92 | 1.00 | 0.95 | 1.01 | 1.03 | 1.03 | 1.15 | 0.95 | 1.16 | 1.28 | – | – | – | – |
| O=C(CCOCCOCCOCCOCCNC(=O)CCc1ccc2n1[B-](F)(F)[N+]1=C(c3ccc[nH]3)C=CC1=C2)NCCCN1CCN(C2=Nc3ccccc3Oc3ccc(Cl)cc32)CC1 [Loxapine-a-2-NB590] | 1.17 | 1.09 | 1.02 | 1.10 | 1.07 | 1.05 | 1.09 | 1.08 | 0.94 | 1.09 | 1.06 | 1.01 | – | – | – | – |
| CN1CCN(C2=Nc3cc(Cl)ccc3N(CC(=O)NCCOCCOCCOCCOCCNC(=O)CCc3ccc4n3[B-](F)(F)[N+]3=C(c5ccc[nH]5)C=CC3=C4)c3ccccc32)CC1 [Clozapine-c-2-NB590] | – | – | – | – | – | – | – | – | – | – | – | – | – | – | – | NanoBRET Fold Response ([1]; GRPR, 0.1μM tracer): 1.01; NanoBRET Fold Response ([1]; GRPR, 1μM tracer): 0.99; NanoBRET Fold Response ([2]; CCR8, 0.1μM tracer): 0.97; NanoBRET Fold Response ([2]; CCR8, 1μM tracer): 0.96; NanoBRET Fold Response ([3]; FZD2, 0.1μM tracer): 1.01; NanoBRET Fold Response ([3]; FZD2, 1μM tracer): 0.90; NanoBRET Fold Response ([4]; 0.1μM tracer): 1.00; NanoBRET Fold Response ([4]; 1μM tracer): 0.92; NanoBRET Fold Response ([5]; NPY1R, 0.1μM tracer): 1.01; NanoBRET Fold Response ([5]; NPY1R, 1μM tracer): 1.01; NanoBRET Fold Response ([6]; HRH3, 0.1μM tracer): 0.98; NanoBRET Fold Response ([6]; HRH3, 1μM tracer): 0.86 |
| CN(C)CCC=C1c2ccccc2CCc2ccc(C(=O)NCCNC(=O)CCOCCOCCOCCOCCNC(=O)CCc3ccc4n3[B-](F)(F)[N+]3=C(c5ccc[nH]5)C=CC3=C4)cc21 [Amitriptyline-a-2-NB590] | – | – | – | – | – | – | – | – | – | – | – | – | 0.97 | 1.00 | 0.94 | NanoBRET Fold Response ([1]; tracer at 0.1μM): 1.12; NanoBRET Fold Response ([1]; tracer at 1μM): 0.98; NanoBRET Fold Response ([2]; tracer at 0.1μM): 0.94; NanoBRET Fold Response ([3]; tracer at 0.1μM): 1.04; NanoBRET Fold Response ([5]; tracer at 0.1μM): 1.00; NanoBRET Fold Response ([5]; tracer at 1μM): 1.03; NanoBRET Fold Response ([6]; tracer at 0.1μM): 1.01 |
| CN(CCC=C1c2ccccc2CCc2ccccc21)C(=O)CCOCCOCCOCCOCCNC(=O)CCc1ccc2n1[B-](F)(F)[N+]1=C(c3ccc[nH]3)C=CC1=C2 [Amitriptyline-e-2-NB590] | – | – | – | – | – | – | – | – | – | – | – | – | 0.79 | 1.03 | 0.95 | – |

Reference: paper PMC8151276, “An Integrated Approach toward NanoBRET Tracers for Analysis of GPCR Ligand Engagement” (Molecules, 2021)
